Assay results as given in patent publication US6313090A, “Methods for treating parasitic infection using thiopeptides” (The United States of America as represented by the …, priority 2000, dated 2001).

What was measured:
[1] = Precipitation seen in culture medium of the growth assay; assay type: physicochemical; details: highest concentrations (final 0.2mM) in culture
Experimental: Assay of Growth inhibition. Thiostrepton (1525 u/mg; Calbiochem) and anisomycin (Sigma) were dissolved at 100 mM in DMSO (Pierce). P. falciparum (strain 3D7) (44) was maintained in culture with human erythrocytes (5% hematocrit) in RPMI-1640 (Life Technologies) supplemented with HEPES and sodium bicarbonate and human sera (10%) under standard conditions (18,19). The growth inhibition assay was conducted as described (20). Briefly, the parasitemia was adjusted to 0.1% parasitemia, 2.5% hematocrit and 200 μl aliquots placed in wells of a microtitre dish. Serial dilutions of drugs were made in RPMI. Thiostrepton was diluted to 10 mM in DMSO before the serial dilutions in RPMI. Aliquots (20 μl) were added in triplicate to the cultures in the microtitre plate, mixing well. At the highest concentrations (final 0.2mM), thiostrepton precipitates. After incubation for 48 hours under standard conditions, [2,8-^3 H]-hypoxanthine Moravek Biochemicals, 12.5 Ci/mmol) in RPMI (20 μl, 0.05 mCi/ml) was added to each well. After incubation for a further 24 hours, the cultures were lysed and incorporated radioactivity was measured with an automated counter.

[2] = tested on: P. falciparum total protein synthesis; test: Assay of inhibition of protein synthesis, [3H]leucine incorporation; assay type: cell-based
Experimental: Assay of Inhibition of Protein Synthesis. Assay for inhibition of protein synthesis was similar to above except the culture and drug dilutions were in RPMI-1640 without leucine (Select-Amine, Life Technologies) and the sera was extensively dialyzed as described (21). Also, the cultures were adjusted to 1% parasitemia prior to the experiment. Microtitre plates were set up with drug dilutions as described above except cultures were incubated with drug for only 4 hours. [3,4,5-^3 H]-Leucine (Moravek Biochemicals, 122 Ci/mmol, 0.5 mCi/ml, 100 μCi) was diluted to 4 ml in RPMI without leucine. The radiolabeled leucine (20 μl, […]) was added to each well and the plates were further incubated for four hours. The microtitre plates were processed as above to quantitate the incorporated radiolabel.
Assay of inhibition. The effect of thiostrepton on growth and protein synthesis of P. falciparum was compared to anisomycin, since the effect of both of these drugs is on protein synthesis. To assay the effect of thiostrepton and anisomycin on the growth of P. faciparum, inhibition of the uptake and incorporation of [^3 H]hypoxanthine was quantitated at serial dilutions of the drugs on an in vitro culture of P. falciparum. […] Inhibition of the incorporation of [^3 H]leucine was also tested at the same dilutions of the drugs. […]

[3] = tested on: rpoB/C mRNA encoded by the 35-kb plastid-like organelle genome; assay type: cell-based, P. falciparum
Experimental: As of organelle and cyloplasmic transcript levels. RNA polymerase transcript levels were assessed by comparing the amounts of RNA synthesized at timepoints following drug treatment. Cultures of P. falciparum (3.2% parasitemia, 5% hematocrit) were treated with thiostrepton at 8 μM and rifampin (Sigma) at 80 μM; near the IC99 values (this study and ref. 22). Aliquots (5 ml) of treated and control cultures were removed and immediately processed for RNA with a guanidinium thiocyanate solution, according to the manufacturer's directions (RNAgents, Promega). All RNA samples were dissolved in 50 μl DEPC-treated water, DNase I treated as previously described (23) and an aliquot (1 μl) was removed for RT-PCR First strand synthesis of cDNA was completed with a random hexamer (Superscript Preamplification System, Life Technologies). One-tenth of the CDNA product was utilized for PCR of rpoB/C, MSA1, and rRNA. Primers corresponding to the 3' region of rpoB, 5'-GGGCTTTAGAAGCTTTTGG-3' (SEQ ID NO:1), and the 5' region of rpoC, 5'-[…]-3' (SEQ ID NO:2) were applied as described (2,3) for PCR of nascent rpoB/C transcripts. Reactions were cycled with the following parameters: 94° C./30 seconds, 42° C./30 seconds, 72° C./60 seconds, 35 cycles. Primers for amplification of nucleotide 64 to 614 of MSA1 with 5'-GTGTGATAATATTCATGG-3' (SEQ ID NO:3) and 5'-GGAGAGCATTTGGTG-3' (SEQ ID NO:4)(24) and the small subunit rRNA with oligonucleotides 841 and 844 (23) were used for amplification reactions following the parameters in the respective references except with 35 cycles. Samples were also analyzed after 25 cycles of amplification to ensure detection in the linear range of the amplification reaction, with similar results. Following electrophoresis of aliquots from the amplification reactions on 1% agarose:TBE gels, samples were transferred to nylon membranes (GeneScreen Plus, DuPont) and hybridized as described (25). The amplification products were probed with 5'-^32 P-labeled oligonucleotides. The rpoB/C products were probed with 5'-[…]-3' (SEQ ID NO:5) (nucleotide 2009-2030 of rpoB) and 5'-CGGAGAGGTATTAATACC-3' (SEQ ED NO:6) (nucleotide 108-125 of rpoC), in 5×SSC, 10 mM sodium phosphate, 0.05% sodium pyrophosphate, 1% sodium dodecyl sulfate, 5×Denhardt's solution, 100 μg/ml yeast tRNA, 42° C. and washed in the hybridization solution lacking Denhardt's and tRNA at 37° C., three times. The final wash was 1×SSC, 0.5% sodium dodecyl sulfate, 42° C. followed by autoradiography. The same results were obtained with either probe. The MSA1 amplification products were similarly probed with 5'-[…]-3' (SEQ ID NO:7) and the rRNA products with oligonucleotide 842 (23).
The target of inhibition by thiostrepton. […]

For C=C(NC(=O)C(=C)NC(=O)c1csc(C2=N[C@@H]3c4csc(n4)[C@H]4NC(=O)c5csc(n5)[C@H]([C@](C)(O)[C@@H](C)O)NC(=O)[C@H]5CSC(=N5)/C(=C/C)NC(=O)[C@H]([C@@H](C)O)NC(=O)c5csc(n5)[C@]3(CC2)NC(=O)[C@H](C)NC(=O)C(=C)NC(=O)[C@H](C)NC(=O)[C@H]([C@@H](C)CC)N[C@@H]2C=Cc3c([C@H](C)O)cc(nc3[C@H]2O)C(=O)O[C@@H]4C)n1)C(N)=O [Thiostrepton, thiostrepton], the precipitation [1] was “precipitates”, the “inhibition of total protein synthesis” value ([2]; at the IC50 for growth) was “only a negligible amount of inhibition” and the “concentration required for almost complete inhibition of total protein synthesis” value ([2]; relative to the IC50 for growth) was “More than ten-fold higher concentrations than the IC50”. The “decay of mRNA corresponding to rpoB/C, time of drug treatment” value ([3]; thiostrepton at 8 μM, rifampin at 80 μM) was no more than 6 h, the “decline of the rpoB/C product with time” value ([3]; time course, 8 μM) was “notable affect after only one hour of treatment” and the “effect on levels of nuclear-encoded MSA mRNA and total rRNA” value ([3]; within the duration of the experiment (8 hours), 8 μM) was “no effect”.
